From ChEMBL document CHEMBL4673346, “Discovery of a benzimidazole series as the first highly potent and selective ACSL1 inhibitors” (Bioorg Med Chem Lett, 2021)
≈ marks a conversion by molar mass, not a printed value.

How the values were obtained:
[1] = Solubility of compound in pH 1.2; format: physicochemical; conditions: buffer
[2] = Half life in rat at 0.5 mg/kg, iv; format: ADME, organism-based; conditions: in vivo
[3] = test system: Mus musculus; assay: In vivo inhibition of ACSL1 in mouse assessed as reduction in acyl-coA production in liver administered orally using oleic acid as substrate and measured after 17 hrs; format: functional, organism-based
[4] = Solubility of compound in pH 6.8 with TCA; format: physicochemical
[5] = Total clearance in rat at 0.5 mg/kg, iv; format: ADME, organism-based; conditions: in vivo
[6] = target: Cytochrome P450 2D6 (Homo sapiens, UniProt P10635); assay: Inhibition of CYP2D6 (unknown origin); format: ADME
Cytochrome P450 2D6, sequence (P10635 whole entry): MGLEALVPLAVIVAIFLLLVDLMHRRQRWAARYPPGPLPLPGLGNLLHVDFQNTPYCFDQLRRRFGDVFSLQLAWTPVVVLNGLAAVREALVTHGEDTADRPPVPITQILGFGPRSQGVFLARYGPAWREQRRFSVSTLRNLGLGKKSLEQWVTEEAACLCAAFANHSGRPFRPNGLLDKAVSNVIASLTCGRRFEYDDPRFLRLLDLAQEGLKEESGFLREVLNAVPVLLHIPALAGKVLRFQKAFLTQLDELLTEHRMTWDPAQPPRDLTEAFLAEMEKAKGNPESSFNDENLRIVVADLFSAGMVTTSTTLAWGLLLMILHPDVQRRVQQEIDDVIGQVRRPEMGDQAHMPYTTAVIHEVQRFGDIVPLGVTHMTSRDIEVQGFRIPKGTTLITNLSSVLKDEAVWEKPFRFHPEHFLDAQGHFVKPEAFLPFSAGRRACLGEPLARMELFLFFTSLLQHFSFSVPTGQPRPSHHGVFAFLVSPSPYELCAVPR

[7] = target: T1, Long-chain-fatty-acid--CoA ligase 5 (Homo sapiens, UniProt Q9ULC5); assay: Inhibition of recombinant human ACSL5 assessed as reduction in […] prodution incubated for 90 mins in presence of Coenzyme A, ATP and MgCl2 by MALDI-TOF MS analysis
T1 sequence (Q9ULC5 whole entry): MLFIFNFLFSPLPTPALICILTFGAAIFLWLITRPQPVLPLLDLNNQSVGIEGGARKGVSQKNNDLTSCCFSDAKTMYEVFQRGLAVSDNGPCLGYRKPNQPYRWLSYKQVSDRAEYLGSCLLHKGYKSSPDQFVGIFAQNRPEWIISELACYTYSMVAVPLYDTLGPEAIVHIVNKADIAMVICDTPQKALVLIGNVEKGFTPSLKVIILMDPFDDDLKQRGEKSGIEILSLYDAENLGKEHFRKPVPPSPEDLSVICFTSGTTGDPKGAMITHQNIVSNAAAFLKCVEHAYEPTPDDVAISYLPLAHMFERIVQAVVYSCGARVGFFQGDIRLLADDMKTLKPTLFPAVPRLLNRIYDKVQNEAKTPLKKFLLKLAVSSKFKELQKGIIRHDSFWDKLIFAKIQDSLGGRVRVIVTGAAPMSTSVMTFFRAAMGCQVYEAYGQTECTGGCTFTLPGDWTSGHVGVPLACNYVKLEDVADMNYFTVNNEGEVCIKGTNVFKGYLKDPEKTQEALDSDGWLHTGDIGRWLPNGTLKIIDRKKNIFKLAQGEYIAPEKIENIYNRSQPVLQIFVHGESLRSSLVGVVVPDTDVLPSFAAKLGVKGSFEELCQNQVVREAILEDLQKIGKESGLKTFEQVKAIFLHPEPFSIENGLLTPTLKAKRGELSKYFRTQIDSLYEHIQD

[8] = target: T2, Long-chain-fatty-acid--CoA ligase 1 (Mus musculus, UniProt P41216); assay: Inhibition of recombinant mouse ACSL1 assessed as reduction in […] prodution incubated for 90 mins in presence of Coenzyme A, ATP and MgCl2 by MALDI-TOF MS analysis
T2 sequence (P41216 whole entry): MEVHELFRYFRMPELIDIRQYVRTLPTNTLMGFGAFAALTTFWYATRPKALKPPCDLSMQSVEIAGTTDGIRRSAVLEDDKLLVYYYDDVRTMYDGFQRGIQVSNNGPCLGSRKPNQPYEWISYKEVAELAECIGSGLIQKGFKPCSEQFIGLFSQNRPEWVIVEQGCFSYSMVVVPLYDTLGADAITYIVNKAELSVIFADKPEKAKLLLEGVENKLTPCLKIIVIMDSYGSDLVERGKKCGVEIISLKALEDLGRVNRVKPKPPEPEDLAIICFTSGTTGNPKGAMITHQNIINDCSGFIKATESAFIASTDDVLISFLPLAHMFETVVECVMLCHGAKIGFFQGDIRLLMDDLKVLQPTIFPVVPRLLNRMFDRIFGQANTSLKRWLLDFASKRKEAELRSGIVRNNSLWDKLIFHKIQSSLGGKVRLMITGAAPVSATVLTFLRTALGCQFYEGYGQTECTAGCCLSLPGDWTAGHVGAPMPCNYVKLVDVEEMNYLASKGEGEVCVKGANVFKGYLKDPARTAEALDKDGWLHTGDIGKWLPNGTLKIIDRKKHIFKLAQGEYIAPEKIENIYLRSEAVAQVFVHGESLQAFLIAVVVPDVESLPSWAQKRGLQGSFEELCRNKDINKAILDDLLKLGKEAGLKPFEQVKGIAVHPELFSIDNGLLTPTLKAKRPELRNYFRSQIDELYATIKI

[9] = target: Fatty acid CoA ligase Acsl3 (Homo sapiens, UniProt O95573); assay: Inhibition of recombinant human ACSL3 assessed as reduction in […] prodution incubated for 90 mins in presence of Coenzyme A, ATP and MgCl2 by MALDI-TOF MS analysis
Fatty acid CoA ligase Acsl3, sequence (O95573 whole entry): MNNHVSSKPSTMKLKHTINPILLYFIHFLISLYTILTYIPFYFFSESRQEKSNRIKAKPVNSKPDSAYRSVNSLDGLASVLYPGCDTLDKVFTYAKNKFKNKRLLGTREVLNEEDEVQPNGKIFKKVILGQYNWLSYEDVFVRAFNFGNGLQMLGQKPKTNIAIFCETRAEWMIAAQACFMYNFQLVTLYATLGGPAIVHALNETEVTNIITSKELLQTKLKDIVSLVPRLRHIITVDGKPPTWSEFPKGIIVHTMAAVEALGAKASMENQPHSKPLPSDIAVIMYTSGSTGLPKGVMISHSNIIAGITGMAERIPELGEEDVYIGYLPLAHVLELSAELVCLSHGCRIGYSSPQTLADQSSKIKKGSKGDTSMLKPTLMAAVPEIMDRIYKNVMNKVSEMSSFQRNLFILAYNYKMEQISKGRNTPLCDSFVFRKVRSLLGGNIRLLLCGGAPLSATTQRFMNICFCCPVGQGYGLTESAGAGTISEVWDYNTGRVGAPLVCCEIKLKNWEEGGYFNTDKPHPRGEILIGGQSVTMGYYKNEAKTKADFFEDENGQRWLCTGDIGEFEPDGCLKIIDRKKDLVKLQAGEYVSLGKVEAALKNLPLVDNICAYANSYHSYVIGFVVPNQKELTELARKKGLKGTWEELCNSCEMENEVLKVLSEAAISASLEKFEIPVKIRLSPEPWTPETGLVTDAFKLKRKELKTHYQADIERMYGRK

[10] = Volume of distribution at steady state in rat at 0.5 mg/kg, iv; format: ADME, organism-based; conditions: in vivo, read-out: Vdss

With `Cc1cccc(Cc2nc3cc(O[C@H]4CC[C@@H](C(=O)O)CC4)ccc3n2C)c1` the solubility [1] was 307 µg/mL (≈ 811 µM), the half-life [2] was 2.8 h and the inhibition [3] was “Dose-dependent effect”. For the same molecule, the solubility [4] was 24 µg/mL (≈ 63.4 µM), the clearance [5] was 1.75 mL/min/kg and the IC50 [6] was over 20 µM. For the same molecule, the IC50 [7] was over 200 µM, the IC50 [8] was 0.03 µM and the IC50 [9] was over 200 µM. The Vd [10] was 0.38 L/kg.
